Where two headings read alike, the source gives them in different places.
What was measured:
HIF-1a = HIF-1a (Homo sapiens, UniProt Q16665); conditions: cited from earlier work
HIF-2a = HIF-2a (Homo sapiens, UniProt Q99814); conditions: target HIF-2a; cited from earlier work
PHD = conditions: cited from earlier work
[1] = molecular target: T1, EPO/EPOR interaction (EPOR-CD131-Fc and EPO) (Homo sapiens, UniProt P19235+P32927); test: Octet blocking of the EPO/EPOR interaction by hybridoma supernatants; assay type: binding; conditions: EPO 10 nM
T1 construct: Chimeric Fc fusion proteins of the extracellular domains of human EPOR and human CD131; purchased Sino Biological CT010-H02H
T1 sequence (P19235 25-250 limits assumed): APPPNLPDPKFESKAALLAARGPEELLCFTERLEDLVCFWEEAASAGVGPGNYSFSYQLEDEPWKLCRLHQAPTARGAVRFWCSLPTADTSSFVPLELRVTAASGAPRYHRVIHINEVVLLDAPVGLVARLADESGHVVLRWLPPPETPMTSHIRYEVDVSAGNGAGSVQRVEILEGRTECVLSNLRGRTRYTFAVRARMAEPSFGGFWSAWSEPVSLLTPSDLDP
T1 sequence (P32927 17-443 limits assumed): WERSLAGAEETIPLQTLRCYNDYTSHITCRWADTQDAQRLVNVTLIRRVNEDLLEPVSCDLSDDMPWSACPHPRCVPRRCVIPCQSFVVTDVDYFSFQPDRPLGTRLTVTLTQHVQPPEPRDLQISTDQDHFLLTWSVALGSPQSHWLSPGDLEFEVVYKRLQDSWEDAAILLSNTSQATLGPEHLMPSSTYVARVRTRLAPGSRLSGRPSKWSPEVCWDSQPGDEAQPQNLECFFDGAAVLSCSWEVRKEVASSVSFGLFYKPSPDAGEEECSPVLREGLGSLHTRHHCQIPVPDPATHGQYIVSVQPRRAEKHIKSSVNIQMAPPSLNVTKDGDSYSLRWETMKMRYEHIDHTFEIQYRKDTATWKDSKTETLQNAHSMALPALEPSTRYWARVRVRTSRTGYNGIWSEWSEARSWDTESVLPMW

HIF-2a, sequence (Q99814 whole entry): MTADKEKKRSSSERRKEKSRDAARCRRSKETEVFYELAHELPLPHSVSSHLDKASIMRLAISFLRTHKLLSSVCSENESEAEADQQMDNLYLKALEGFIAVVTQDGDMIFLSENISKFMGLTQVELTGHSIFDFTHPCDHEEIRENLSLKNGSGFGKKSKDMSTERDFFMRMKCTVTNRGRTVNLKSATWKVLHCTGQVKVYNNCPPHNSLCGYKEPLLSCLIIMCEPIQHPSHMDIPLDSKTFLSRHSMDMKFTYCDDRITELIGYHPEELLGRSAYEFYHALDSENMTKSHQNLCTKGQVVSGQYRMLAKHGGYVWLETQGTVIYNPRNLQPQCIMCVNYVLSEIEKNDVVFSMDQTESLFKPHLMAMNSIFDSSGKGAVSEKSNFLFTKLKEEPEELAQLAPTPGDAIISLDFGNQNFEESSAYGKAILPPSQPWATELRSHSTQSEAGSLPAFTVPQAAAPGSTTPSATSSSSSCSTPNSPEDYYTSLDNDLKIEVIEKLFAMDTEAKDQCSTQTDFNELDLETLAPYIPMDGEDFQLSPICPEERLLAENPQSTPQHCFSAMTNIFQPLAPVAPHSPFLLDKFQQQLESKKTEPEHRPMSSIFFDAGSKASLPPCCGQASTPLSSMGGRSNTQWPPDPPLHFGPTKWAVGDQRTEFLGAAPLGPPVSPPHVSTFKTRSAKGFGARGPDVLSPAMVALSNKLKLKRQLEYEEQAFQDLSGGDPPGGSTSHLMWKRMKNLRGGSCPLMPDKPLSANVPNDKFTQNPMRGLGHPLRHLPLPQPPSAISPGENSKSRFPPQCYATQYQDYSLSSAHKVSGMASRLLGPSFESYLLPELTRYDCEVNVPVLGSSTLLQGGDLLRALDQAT
HIF-1a, sequence (Q16665 whole entry): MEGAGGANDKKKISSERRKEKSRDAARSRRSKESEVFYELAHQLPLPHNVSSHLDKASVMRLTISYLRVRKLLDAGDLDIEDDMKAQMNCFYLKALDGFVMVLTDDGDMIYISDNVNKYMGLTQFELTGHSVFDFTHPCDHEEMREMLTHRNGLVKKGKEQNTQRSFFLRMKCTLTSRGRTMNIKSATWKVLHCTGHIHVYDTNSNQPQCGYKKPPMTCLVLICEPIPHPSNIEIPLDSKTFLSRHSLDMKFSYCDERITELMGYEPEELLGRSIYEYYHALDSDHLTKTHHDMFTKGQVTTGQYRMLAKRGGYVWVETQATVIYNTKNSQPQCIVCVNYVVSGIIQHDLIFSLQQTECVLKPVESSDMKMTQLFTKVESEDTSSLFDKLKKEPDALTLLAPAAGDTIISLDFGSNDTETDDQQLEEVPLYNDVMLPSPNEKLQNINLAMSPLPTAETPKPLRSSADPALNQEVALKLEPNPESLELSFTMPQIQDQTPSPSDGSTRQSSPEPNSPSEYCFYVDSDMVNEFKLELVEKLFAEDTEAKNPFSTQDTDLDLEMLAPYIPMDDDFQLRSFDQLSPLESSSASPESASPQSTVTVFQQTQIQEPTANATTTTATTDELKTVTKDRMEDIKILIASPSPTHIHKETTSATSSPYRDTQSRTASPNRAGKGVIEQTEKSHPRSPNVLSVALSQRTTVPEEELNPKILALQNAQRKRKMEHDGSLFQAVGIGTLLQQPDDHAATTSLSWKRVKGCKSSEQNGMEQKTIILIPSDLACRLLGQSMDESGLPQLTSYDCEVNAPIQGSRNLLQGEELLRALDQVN

Question: Which IC50 (HIF-1a; read-out: IC50) does the source give for `COC(=O)c1ccc(O)c(NC(=O)COc2ccc(C34CC5CC(CC(C5)C3)C4)cc2)c1` [CAY10585 (LW6)] here?
Answer: Its IC50 is 700 to 2600 nM.

Question: With `CN1C(=O)[C@]2(Cc3cn([C@]45C[C@@]67SS[C@@](CO)(C(=O)N6[C@H]4Nc4ccccc45)N(C)C7=O)c4ccccc34)SS[C@@]1(CO)C(=O)N2C` [Chetomin] as the molecule, how does the IC50 (HIF-1a; target HIF-1a, read-out: IC50) read?
Answer: The IC50 was 10 nM.

Question: Which IC50 (HIF-1a; target HIF-1a, read-out: IC50) does the source give for `CS[C@H]1SC[C@H]2C(=O)N(C)[C@@H](C(C)C)C(=O)OC[C@@H](NC(=O)c3cnc4ccccc4n3)C(=O)N[C@@H](C)C(=O)N(C)[C@@H]1C(=O)N(C)[C@@H](C(C)C)C(=O)OC[C@@H](NC(=O)c1cnc3ccccc3n1)C(=O)N[C@@H](C)C(=O)N2C` [Echinomycin] here?
Answer: Its IC50 is 1.2 nM.

Question: For `Cc1ccc(C(=O)COC(=O)c2cccc(NC(=O)c3ccc([N+](=O)[O-])cc3[N+](=O)[O-])c2)cc1` [FM19G11], which IC50 (HIF-1a; target HIF-1a) is on record?
Answer: The IC50 was 80 nM.

Question: Which IC50 (HIF-2a) does the source give for `O=[N+]([O-])c1cc(Nc2ccc3nonc3c2[N+](=O)[O-])ccc1Cl` [HIF-2α-IN-3] here?
Answer: Its IC50 is 400 nM.

Question: Which IC50 (HIF-2a) does the source give for `COC(=O)c1sccc1N/N=C(\C#N)S(C)(=O)=O` [HIF-2α-IN-4] here?
Answer: The IC50 was 5000 nM.

Question: For `O=S(=O)(NCCSSCCNS(=O)(=O)c1cc(Cl)ccc1Cl)c1cc(Cl)ccc1Cl` [KC7F2], which IC50 (HIF-1a; target HIF-1a, read-out: IC50) is on record?
Answer: The IC50 was 20000 nM.

Question: For `c1ccc(-c2ccc(CNc3nc(-c4ccccn4)nnc3-c3ccccc3)cc2)cc1` [ML228], which IC50 (PHD; target cell empty) is on record?
Answer: The IC50 was 1000 nM.

Question: For `O=c1c(-n2ccnn2)c[nH]n1-c1cc(N2CCOCC2)ncn1` [Molidustat], which IC50 (PHD; target PHD) is on record?
Answer: Its IC50 is 450 nM.

Question: With `O=C(O)CNC(=O)c1ncc(-c2cn(CCCc3ccc(Cl)cc3)nn2)cc1O` [Prolyl Hydroxylase inhibitor 1] as the molecule, how does the IC50 (PHD; target PHD) read?
Answer: The IC50 was 62.2 nM.

Question: With `O=[N+]([O-])c1c(Nc2cc(F)cc(Cl)c2)ccc2nonc12` [TC-S 700] as the molecule, how does the IC50 (HIF-2a) read?
Answer: Its IC50 is 81 nM.

Question: Which IC50 (HIF-1a; target HIF-1a, read-out: IC50) does the source give for `CC[C@@H](C)C[C@H](C)C[C@H](C)/C=C(\C)[C@H]1OC(O)([C@](C)(O)C(=O)N[C@@H]2C(=O)N3NCCC[C@@H]3C(=O)N(O)CC(=O)N(C)CC(=O)NCC(=O)N(C)CC(=O)O[C@H]2C(C)C)CC[C@@H]1OC` (stereo partly shown) [Verucopeptin] here?
Answer: Its IC50 is 220 nM.

B1: EPORab - M24: hybridoma antibody clone, VH/VK in Table 10 (antibody, V domains shown)
VH: EVQLVESGGGLVKPGGSLRLSCAASGFTFTNAWMNWVRQAPGKGLEWIGRIKSKTAGETTDYAAPVKGRFTISRDDSKNTLYLQMNSLKTEDTAVYYCTTDPDYGDPYYYYYFMDVWGKGTTVTVSS
VL: DIQMTQSPSSLSASIGDRVTISCRASQSISSYLNWYQQKPGKAPKLLIYGASSLQSGVPSRFSGSGSGTDFTLTISSLQPEDFATYYCQQSYSLPLTFGGGTKVEIK
Question: For B1, which “blocking of the EPO/EPOR interaction” value [1] is on record?
Answer: Its value is “partial blocking”.

B2: EPORab - M52: hybridoma antibody clone, VH/VK in Table 10 (antibody, V domains shown)
VH: QLQLQESGPGLAKPSETLSLTCTVSGVSISSNSYYWGWIRQPPGKGLEWIGNIYHSGRTYYNPSLRSRVTISVDTSKNQFSLKLNSVTAADTAVYYCARGYSYGAFDYWGQGTLVTVSS
VL: DIQMTQSPSSLSASVGDRVTITCRASQGIRNDLGWYQQKPGKAPKRLIYAASSLQSGIPSRFSGSGSGTEFTLTISSLQPEDFATYYCLQHNNYPWTFGQGTKVEIK
Question: With B2 as the molecule, how does the “blocking of the EPO/EPOR interaction” value [1] read?
Answer: The value was “partial blocking”.

B3: EPORab - M19: hybridoma antibody clone, VH/VK in Table 10 (antibody, V domains shown)
VH: QLQLQESGPGLVKPSETLSLTCTVSGGSISSSNHYWGWIRQPPGKGLEWIGTLYYSGSTYYEPSLKSRVTISVDTSMNQFSLNLSSVTATDTAVYNCARGDRYGPFDYWGQGTLVTVSS
VL: DIVMTQSPSSLSASVGDRVTITCRASQGIRDDLGWYQQKPEKAPKRLICAASSLQSGVPSRFSGSGSGTEFTLTISSLQPEDFATYYCLQYNRYPWTFGQGTKVEIK
Question: Which “blocking of the EPO/EPOR interaction” value [1] does the source give for B3 here?
Answer: The value was “partial blocking”.

B4: EPORab - M37: hybridoma antibody clone, VH/VK in Table 10 (antibody, V domains shown)
VH: QVQLQESGPGLVKPSGTLSLTCAVSGGSITTNNWWSWVRQSPGKGLEWIGEIYHSGNTNYNPSLKSRVTMSVDKSKNQFSLNLNSVIVADTAVYYCASALGTYYGAFDTWGQGTMVTVSA
VL: DIQMTQSPSSLSASVGDRVTITCRASQSISNYLNWYQQKPGKAPKLLIYAASSLQSGVPSRFSGSGSGTDFTLTISSLQPEDFTTYYCQQSYGTPYTFGQGAKLQIK
Question: For B4, which “blocking of the EPO/EPOR interaction” value [1] is on record?
Answer: The value was “did not block”.

B5: EPORab - M43: hybridoma antibody clone, VH/VK in Table 10 (antibody, V domains shown)
VH: QVQLQESGPGLVKPSGTLSLTCAVSGGSISSSNWWSWVRQPPGKGLEWIGEIYHSGSINYNPSLKSRVTISVDKSKNQFSLKLTSVTAADTAVYYCASALGNYYGAFDLWGQGTMVTVSS
VL: DIVMTQSPSSLSASVGDRVTITCRASQTISSYLNWYQQKPGKAPKLLICAASSLQGGVPSRFSGSGSGTDFTLTISSLQPEDFAPYYCQQSYSTPYTFGQGTKLEIK
Question: Which “blocking of the EPO/EPOR interaction” value [1] does the source give for B5 here?
Answer: Its value is “did not block”.

B6: EPORab - M54: hybridoma antibody clone, VH/VK in Table 10 (antibody, V domains shown)
VH: QLQLQESGPGLVKPSETLSLTCSVSGGSISSSGYYWGWIRQPPGKGLDWIGTIYYSGNTNYNPSLNSRVTISVDTSRNQFSLKLRSVTAADTAVYYCARGYSYGPFDYWGQGTLVTVSS
VL: EIVMTQSPATLSVSPGERATLSCRASQSVSSNLAWYQLKPGQAPRLLIYGASTRATGIPARFSGSGSGTEFTLTISSLQSEDFAVYYCHPYNNWPLTFGGGTKVEIK
Question: For B6, which “blocking of the EPO/EPOR interaction” value [1] is on record?
Answer: The value was “partial blocking”.

B7: EPORab - M71: hybridoma antibody clone, VH/VK in Table 10 (antibody, V domains shown)
VH: QVQLVESGAEVKKPRASVKVSCKTSGYTFTRHYMHWVRQAPGQGLEWMGIINPNNNSTSYAQKFQGRITMTRDTSTSTVYMELSSLRSEDTAVYYCARFRIVGTTLYFDYWGQGTLVTVSS
VL: EIVMTQSPATLSVSPGERATLSCRASQSVSSNLAWYQLKPGQAPRLLIYGASTRATGIPARFSGSGSGTEFTLTISSLQSEDFAVYYCHPYNNWPLTFGGGTKVEIK
Question: With B7 as the molecule, how does the “blocking of the EPO/EPOR interaction” value [1] read?
Answer: The value was “did not block”.

Source: patent publication US12637513B2, “Method of treating cancer by administering an inhibitor of erythropoietin receptor activity comprising either erythropoietin receptor or erythropoietin protein” (ImmunEdge, Inc., priority 2022, dated 2026)
